Activity calls are given as the source filed them. No cut-off for these calls is given here.

This test concerns Mus musculus. Nature of the test: Antidepressant activity in Mus musculus (mouse) assessed as reduction of immobility time at 10 mg/kg after 1 hr measured for 5 min by forced swim test. It is filed as functional.
With `CCNC(=S)N1CCN(c2ccccc2)CC1`, the inhibition entry is “inactive”.
`NNCCc1ccccc1` [PHENELZINE]: the inhibition in vivo (in general, the drop in the measured response relative to a control, in per cent) at 10 mg/kg was found to be 15.9%.
In the case of `CCN(CC)C(=O)Nc1ccc(C(=O)O)cc1`, the inhibition in vivo at 10 mg/kg amounted to 16.7%.
Same read-out and setting: with `CCN(CC)C(=O)Nc1ccc(Cl)cc1` the figure was 7.04%.
The same measure, in the same setting: with `CCCCCCCOC(=O)Nc1ccccc1` the figure was 32.5%.
As for `CCN(CC)C(=O)Nc1c(C)cccc1C`, the inhibition result was “inactive”.
For the molecule `CCOC(=O)Nc1ccccc1` [ETHYL PHENYLCARBAMATE], the inhibition in vivo at 10 mg/kg came out at 21.6%.
Regarding `CCN(CC)C(=O)Nc1ccccc1C(=O)O`, the inhibition in vivo at 10 mg/kg was 3.52%.
On the same count and under the same terms, with `O=C(Nc1ccccc1)N1CCN(c2ccccc2)CC1` the figure was 27.7%.

The values are drawn from ChEMBL document CHEMBL3046387, “Antidepressant activity of carbamates and urea derivatives” (Med Chem Res, 2012).
